According to patent US20030003485A1, “Methods for identifying antigens” (Ludwig Institute for Cancer Research, priority 2001, published 2003):
Ends that are not written are not given here.

How the values were obtained:
Assay type in all cases: cell-based, mouse
CTL clone B-24 [1] = assay: Cytotoxicity assay (51Cr release) with CTL clone B-24; details: peptide pulsed P1.HTR target cells
Protocol: Cytotoxicity assay. Tumor cells were labeled by incubating 2×10^6 cells with 2 MBq of Na2^51CrO4, (New England Nuclear, Boston, Mass.) in 0.3 ml of medium for 90 min at 37° C. under 5% CO2 in air. The cells were washed and used as targets. […] In antibody blocking assays, serially diluted mAb (100 μl) was added to the mixture of effector cells and 10^4 labeled target cells (100 μl). After incubation for 3.5 hr at 37° C. under 5% CO2 in air, the supernatants were removed and their radioactivity was measured. The percentage of specific lysis was calculated by the following equation: (a-b)/(c-b)×100, where a is the radioactivity in the supernatant of target cells mixed with effector cells, b is the radioactivity in the supernatant of target cells incubated alone, and c is the radioactivity in the supernatant after lysis of target cells with 1% NP-40.

CTL clone B-24 [2] = assay: IFNγ ELISPOT assay with CTL clone B-24, peptide-pulsed stimulator cells and antibody blocking; details: 5,000 B-24 cells, 10,000 CMS8 stimulator cells pulsed with peptide, 96-well plates
Protocol: ELISPOT assay. […] CTL were incubated with stimulator cells on the coated membrane in 96- or 24-well plates for 18 hr at 37° C. under 5% CO2 in air. After culture, the membranes were thoroughly washed with distilled water and incubated with detection antibody for 90 min at 37° C. The IFNγ spots were developed by alkaline phosphatase-conjugated substrate kit (Bio-Rad, Hercules, Calif.) and counted with a dissecting microscope.

AT-1 CTL [3] = assay: Cytotoxicity assay (4 hr 51Cr release) with AT-1 CTL
Protocol: In FIG. 10A, CMS8 cells were ^51Cr labeled and pulsed with the peptide at different concentrations. Cytotoxicity was determined by 4 hr ^51Cr release assay. Effector to target cell ratio was 10. In FIG. 10B, 1×10^4 AT-1 CTL was stimulated with 1×10^4 CMS8 cells in the presence of the 1.0 μM peptide. IFNγ in the supernatant was measured by ELISA.
Cytotoxicity assay. Tumor cells were labeled by incubating 2×10^6 cells with 2 MBq of Na2^51CrO4 (New England Nuclear, Boston, Mass.) in 0.3 ml of medium for 90 min at 37° C. under a 5% CO2 in air. The cells were washed and used as targets. For peptide sensitization, labeled target cells were incubated with peptides at 37° C. for 30 min […]. In direct assays, 10^4 labeled target cells (100 μl) were incubated with effector cells (100 μl) cells. In antibody blocking assays, serially diluted mAb (100 μl) was added to the mixture of effector cells and 10^4 labeled target cells (100 μl). After incubation for 4 hr at 37° C. under a 5% CO2 in air, the supernatants were removed and their radioactivity was measured. The percentage of specific lysis was calculated by the following equation: (a−b)×100/(c−b), where a is the radioactivity in the supernatant of target cells mixed with effector cells, b is that in the supernatant of target cells incubated alone, and c is that in the supernatant after lysis of target cells with 1% NP-40.

AT-1 CTL [4] = assay: IFNγ ELISA of AT-1 CTL stimulated with transfected or peptide-pulsed CMS8 cells; details: 1.0 μM synthetic peptide, 24 hr
Protocol: FIG. 8 depicts deletion mutants and introduction of point mutations in S35. IFNγ production in the supernatant secreted by AT-1 CTL against various constructs was determined by ELISA after culture for 24 hr with transfected CMS8 cells. PCR fragments with deletion were amplified from S35 cDNA and cloned into pCI-neo vector with EcoR I and Sal I sites. Point mutations at nt 699 (A to C) and nt 701 (G to A) in Exp. III were introduced using site-directed mutagenesis kits.
9-mer overlapping peptides were synthesized in the ORF of the third reading frame (“3RF”) of S35. 1×10^4 AT-1 cells were cultured with 1×10^4 CMS8 cells in the presence of 1.0 μM synthetic peptides for 24 hr and IFNγ in the supernatant was measured by ELISA. H-2D^d peptide motifs are shown as XGPXXXXXL (SEQ ID NO: 26) and XGAXXXXXL (SEQ ID NO:27). The synthetic peptides are MERTPIQLGAEAIFRLVLM (SEQ ID NO:15); MERTPIQLG (SEQ ID NO:16); ERTPIQLGA (SEQ ID NO:17); RTPIQLGAE (SEQ ID NO:18); TPIQLGAEA (SEQ ID NO:19); PIQLGAEAI (SEQ ID NO:20); IQLGAEAIF (SEQ ID NO:21); QLGAEAIFR (SEQ ID NO:22); LGAEAIFRL (SEQ ID NO:10); GAEAIFRLV (SEQ ID NO: 23); AEAIFRLVL (SEQ ID NO:24); and EAIFRLVLM (SEQ ID NO:25).
IFNγ ELISA. CTL were stimulated with targets for 18 hr. and IFNγ in the culture supernatant was assayed by the sandwich ELISA. […]

AT-1 CTL [5] = assay: IFNγ ELISPOT assay with AT-1 CTL
Excerpt: Transfection. Recombinant plasmids were purified by Wizard Plus Series 9600™ DNA purification system (Promega, Co., Madison, Wis.) after amplification of bacteria and transfected into 1×10^5 or 1×10^4 cells 24- or 96-well plates, respectively, with plasmid pdl3027 containing the polyoma T antigen (Dailey and Basilico, J. Virol. 54:739-749, 1985) using lipofectamine (GIBCO BRL, Rockville, Md.). After culture for 24 hr, the transfected cells were collected and plated onto anti-IFNγ mAb-coated nitrocellulose membranes in culture plates. AT-1 CTL were then added for ELISPOT assay.
ELISPOT assay. Nitrocellulose disk membranes (14 mm diameter) and 96-well nitrocellulose membrane-based plates (Millipore S4510, Millipore Corp., Bedford, Mass.) were coated with anti-IFNγ mAb (R4-6A2) in 0.05 M bicarbonate buffer (pH 9.6) at 4° C. overnight. After washing, membranes were blocked with RPMI 1640 containing 10% FCS and 50 μM 2-mercaptoethanol for 60 min at 37° C. CTL were incubated with stimulator cells on the coated membrane in 24- or -96well plates for 18 hr at 37° C. under a 5% CO2 in air. […] The IFNγ spots were developed by alkaline phosphatase-conjugated anti-rabbit IgG antibody and substrate kit (Bio-Rad, Hercules, Calif.) and counted with a dissecting microscope.

Molecule: IPGLPLSL [pRL1a, IPGLPLSL]
- cytotoxicity of B-24 against peptide pulsed P1.HTR (CTL clone B-24 [1]): showed cytotoxicity

Molecule: ISTQNHRALDLVA (listed as Mus musculus) [T2H]
- number of IFNγ spots (CTL clone B-24 [2]): no spot

Molecule: LGAEAIFRL (listed as Mus musculus)
- inhibition of Meth A (sv) lysis by AT-1 CTL by peptide pulsed P815 (AT-1 CTL [3]): completely inhibited
- peptide concentration at which AT-1 CTL lysis of peptide pulsed CMS8 was detected (AT-1 CTL [3]; 4 hr 51Cr release, effector to target cell ratio 10): 20 to 30 nM
- stimulation of AT-1 for IFNγ production by peptide pulsed CMS8 cells (AT-1 CTL [4]): stimulation was observed

Molecule: LSPFPFDL [p2Ca]
- number of IFNγ spots (CTL clone B-24 [2]): no spot

B1: S35: cDNA clone, 937 bp long, from Meth A (sv) cDNA library, coding for antigen recognized by AT-1 (nucleic acid, listed as Mus musculus)
DNA: TTAAAAGGGAGATGGAAAGGACTCCAATCCAATTAGGGGCAGAAGCTATCTTTAGACTAGTACTAATGTGGTGAGTATCCTGCCTCACTTAACATCCTTAACCTAGCCTGTGCTTCAGGGAAAGGAAACAAAAGATAGATATATAAAGGCTATTTACTCTGCAAGCCAAACCAAAATTTTGGTACAGAAAATGACAAAGTTTCTTTTTCTCAATAGTAGGAATGTTCTGTGTTCCTAGCCAAAAATTTGTCATCAGTGTCCCTGTGGCTCCCATCTGTCTTTCCTGACCCCCATGATTACTTTTCACTGACAATATAAATCTTAAAAAGCTTTGAGACCAGTGTGCTGATCTAGTTTTTTAAGTTTTGGGTTTTGTTGTTGTGTTTTGGTTTTGGTGTTTTTACGTTTTATTGACTTACAAGCTTTCACTATGTATCCCAGACTGGCTTTGAACTCAGGACCTTCCTGCCTTAGTCTCCCAGGTGCTGAGATTGTGGGGCTGTGTCACTATATTACAACTAATATTTATCAGAAAAATGTTCCTTTTTTGGAAGAAAATGAAGAAAGTGCTGTTTTTGCACTTATCAATTGAGGGGCTGATTTTGATTCGCTCAAGAAAATAGCAGTTTTAACCTAGACATTTGCTGTGGGGACTTGGAACTTTAACTTGGGGTGTCGCTAACTCTACGCTTTCTTCTAGGTCACCATTACTCCCAGCTCCATGAGGAAGATATGTACATACTTTCGTAGAAAGACTCAAGATGACTTCTGCAGTCCTGAACACTCAACTGAATTATAGATGCTAATCTGAAGTTCATTGAACTTGGGTCTACAAAGATTTTTTAAAAAGGCTTTAAAATTCTGGTCTTTAAGAAAATGGTCATCTTTTCATTTTGGAAAAAGTCCTTCTACTCTTTAGCAGACCTAGTCAGGCCCC
- stimulation of AT-1 by cells transfected with cDNA clone (AT-1 CTL [5]; CMS5a, CMS8 and CMS13, or H-2D^d-transfected L cells): stimulated
- stimulation of AT-1 by cells transfected with cDNA clone (AT-1 CTL [5]; H-2L^d-transfected L cells): not
